Measured values reported in article PMC12457078, “Inhibition of soluble epoxide hydrolase in endotoxin induced pig lung injury” (Frontiers in Pharmacology, 2025).
Values joined by “and” are separate entries in the source; they are usually repeats but may differ in a detail not shown here. Equal values may be shown once.

Test system: sEH
Assay: oxylipin analysis, epoxide/diol ratios (target engagement)
Type: in vivo, pig
Parameters: 14,15-DiHETE: unit not given beside the values; 12,13-DiHOME / 9,10-DiHODE / 11,12-DiHETrE / 14,15-DiHETrE / 10,11-DiHDPE / 19,20-DiHDPE / 13-HODE / 5-HETE / 11-HETE / 12-HETE / 5-HEPE / 9(10)-EpOME / 12(13)-EpOME / EKODE / 11(12)-EpETE: unit not given here
Details: for 9,10,13-TriHOME / 9,12,13-TriHOME: bad chromatography; for 14,15-DiHETE: high blanks
Experimental: All animals were monitored with pulse oximetry, heart rate, ECG, systemic arterial blood pressure (ABP), pulmonary arterial pressure (PAP), central venous pressure (CVP) temperature, tidal volumes, respiratory rate and end tidal carbon dioxide. At baseline, and at 3 h, 6 h and at the end of the experiment, pulmonary capillary wedge pressure (PCWP) was measured together with arterial and venous blood gas analyses, as well as cardiac output calculations. Routine chemistry, including creatinine, bilirubin, glucose, electrolytes were collected at baseline and at the end of the experiment (Vetscan VS2®, Abaxis, Griesheim, Germany). Blood samples for measurement of AEPU plasma concentrations, as well as oxylipins (i.e., EpETrEs and their DiHETrE corresponding diols as well as related compounds with other polyunsaturated fatty acid precursors), were collected at baseline, 6 h and at the end of the experiment.
This meant nine subjects in each group to achieve 90% power of detecting a difference of this size given α = 0.05. Anticipating that not all experiments would reach completion, we used a sample size of 22. The results were analyzed using SPSS Statistics, version 24 (IBM Corp., Armonk, N.Y., United States). Normality was examined with the Shapiro-Wilk test, together with examination of histograms of data. Continuous variables were compared using Student’s t-test or Mann Whitney U test, as appropriate. Categorical variables were compared using Fischer’s exact test. Statistical significance was set at α < 0.05. Oxylipins with at least 80% of observations above limit of detection at both timepoints were included in pairwise comparisons of ratios and fold-change evaluations where observations below limit of detection (LOD) were substituted with 0.5 x LOD.

CCOCCOCCOCCCCCNC(=O)NC12CC3CC(CC(C3)C1)C2 [sEH-i]
13-HOTrE (time 0, individual pigs): 1.38 and 2.03 and 0.71 and 0.95 and 0.65
13-oxo-ODE (time 0, individual pigs): <LOD
14(15)-EpETE (time 0, individual pigs): <LOD
14(15)-EpETrE (time 0, individual pigs): <LOD
14,15-DiHETrE (time 0, individual pigs): 0.82 and 0.55 and 0.35 and 0.43 and 0.51
15(16)-EpODE (time 0, individual pigs): 12.33 and 9.22 and 4.38 and 5.90 and 3.04
15,16-DiHODE (time 0, individual pigs): 22.17 and 16.83 and 10.14 and 20.63 and 11.96
15-HEPE (time 0, individual pigs): <LOD
15-HETE (time 0, individual pigs): 0.31 and 0.33 and 0.20 and 0.29 and 0.16
15-HETrE (time 0, individual pigs): 0.19 and 0.21 and 0.13 and 0.18 and 0.10
15-oxo-ETE (time 0, individual pigs): 0.03 and <LOD and 0.043 and 0.0266
16(17)-EpDPE (time 0, individual pigs): <LOD
16,17-DiHDPE (time 0, individual pigs): 0.10 and 0.0746 and 0.0252 and 0.0444 and 0.03
17(18)-EpETE (time 0, individual pigs): <LOD
17,18-DiHETE (time 0, individual pigs): 0.69 and 0.45 and 0.26 and 0.66 and 0.46
17-HDoHE (time 0, individual pigs): <LOD
19(20)-EpDPE (time 0, individual pigs): <LOD
19,20-DiHDPE (time 0, individual pigs): 1.19 and 0.80 and 0.30 and 1.02 and 0.43
20-HETE (time 0, individual pigs): 0.11 and 0.12 and 0.0652 and 0.10 and 0.0444
EKODE (time 0, individual pigs): 0.36 and 0.27 and 0.38 and 0.31 and 0.33
LTB4 (time 0, individual pigs): <LOD and 0.17
PGD2 (time 0, individual pigs): <LOD
PGE2 (time 0, individual pigs): <LOD
PGF2a (time 0, individual pigs): <LOD and 0.0428
Resolvin D1 (time 0, individual pigs): <LOD
Resolvin D2 (time 0, individual pigs): <LOD
TXB2 (time 0, individual pigs): 0.0943 and 0.19 and 0.08601 and 0.18
9,10,13-TriHOME (time 0, individual pigs): 3.66 and 5.50 and 4.37 and 4.76 and 5.61
9,12,13-TriHOME (time 0, individual pigs): <LOD
14,15-DiHETE (time 0, individual pigs): 0.1158 and 0.09583 and 0.02876 and 0.02655 and 0.09648
5(6)-EpETrE (time 6, individual pigs): <LOD
5,6-DiHETrE (time 6, individual pigs): <LOD
5-HEPE (time 6, individual pigs): 0.06 and 0.18 and <LOD and 0.07 and 0.05
5-HETE (time 6, individual pigs): 0.3567 and 0.58 and 0.2089 and 0.4225 and 0.4419
5-oxo-ETE (time 6, individual pigs): 0.11 and 0.18 and <LOD and 0.14 and 0.15
7(8)-EpDPE (time 6, individual pigs): <LOD
7,8-DiHDPE (time 6, individual pigs): <LOD
8(9)-EpETE (time 6, individual pigs): <LOD
8(9)-EpETrE (time 6, individual pigs): <LOD
8,9-DiHETE (time 6, individual pigs): <LOD
8,9-DiHETrE (time 6, individual pigs): 0.10 and 0.07 and <LOD and 0.0449
8-HETE (time 6, individual pigs): 0.07 and 0.09 and 0.04 and 0.12 and 0.0759
9(10)-EpODE (time 6, individual pigs): 0.63 and 0.49 and 0.36 and 0.35 and 0.42
9(10)-EpOME (time 6, individual pigs): 1.87 and 1.33 and 0.60 and 1.51 and 2.48
9,10-DiHODE (time 6, individual pigs): 0.64 and 1.20 and 1.17 and 0.73 and 0.69
9,10-DiHOME (time 6, individual pigs): 5.75 and 8.57 and 9.02 and 5.97
9-HETE (time 6, individual pigs): <LOD
9-HODE (time 6, individual pigs): 13.28 and 24.06 and 22.88 and 16.64 and 15.68
9-HOTrE (time 6, individual pigs): 1.36 and 2.59 and 1.91 and 1.50 and 0.95
9-oxo-ODE (time 6, individual pigs): <LOD
10(11)-EpDPE (time 6, individual pigs): <LOD
10,11-DiHDPE (time 6, individual pigs): 0.07 and 0.03 and 0.0327 and 0.02 and 0.0362
11(12)-EpETE (time 6, individual pigs): 0.1179 and 0.09737 and 0.1269 and 0.06515 and 0.0705
11(12)-EpETrE (time 6, individual pigs): 0.05 and 0.0441 and 0.0274 and 0.0271
11,12-DiHETE (time 6, individual pigs): 0.0351 and 0.0319 and 0.0666 and 0.03 and 0.05
11,12-DiHETrE (time 6, individual pigs): 0.86 and 0.62 and 1.36 and 0.66 and 0.92
11-HETE (time 6, individual pigs): 0.42 and 0.30 and 0.66 and 0.25 and 0.40
12(13)-EpODE (time 6, individual pigs): 1.12 and 0.79 and 0.95 and 0.91
12(13)-EpOME (time 6, individual pigs): 5.25 and 4.08 and 1.60 and 5.63 and 7.56
12,13-DiHODE (time 6, individual pigs): 1.01 and 1.89 and 1.53 and 1.48 and 1.36
12,13-DiHOME (time 6, individual pigs): 16.00 and 24.72 and 21.84 and 22.49 and 19.00
12-HEPE (time 6, individual pigs): 0.08 and 0.11 and 0.06 and 0.0632 and 0.04
12-HETE (time 6, individual pigs): 1.11 and 0.86 and 0.59 and 0.65 and 0.46
12-oxo-ETE (time 6, individual pigs): <LOD
13(14)-EpDPE (time 6, individual pigs): <LOD
13,14-DiHDPE (time 6, individual pigs): 0.15 and 0.10 and 0.13 and 0.06
13-HODE (time 6, individual pigs): 42.16 and 101.75 and 49.69 and 56.11 and 42.57
13-HOTrE (time 6, individual pigs): 1.94 and 6.77 and 3.06 and 2.84 and 1.84
13-oxo-ODE (time 6, individual pigs): <LOD and 5.47
14(15)-EpETE (time 6, individual pigs): <LOD
14(15)-EpETrE (time 6, individual pigs): <LOD and 0.0855 and 0.08
14,15-DiHETrE (time 6, individual pigs): 1.69 and 1.48 and 1.65 and 0.72 and 0.63
15(16)-EpODE (time 6, individual pigs): 24.31 and 29.46 and 11.19 and 30.59 and 26.51
15,16-DiHODE (time 6, individual pigs): 54.83 and 45.60 and 30.98 and 42.25 and 33.76
15-HEPE (time 6, individual pigs): <LOD
15-HETE (time 6, individual pigs): 0.63 and 0.86 and 0.43 and 0.48
15-HETrE (time 6, individual pigs): 0.41 and 0.47 and 0.48 and 0.37 and 0.39
15-oxo-ETE (time 6, individual pigs): 0.0346 and <LOD and 0.03 and 0.0128
16(17)-EpDPE (time 6, individual pigs): <LOD
16,17-DiHDPE (time 6, individual pigs): 0.19 and 0.20 and 0.14 and 0.0527 and 0.085
17(18)-EpETE (time 6, individual pigs): <LOD
17,18-DiHETE (time 6, individual pigs): 1.22 and 1.33 and 1.55 and 0.59 and 1.01
17-HDoHE (time 6, individual pigs): <LOD
19(20)-EpDPE (time 6, individual pigs): <LOD
19,20-DiHDPE (time 6, individual pigs): 1.72 and 1.58 and 1.48 and 0.68 and 0.62
20-HETE (time 6, individual pigs): 0.11 and 0.12 and 0.08 and 0.10
EKODE (time 6, individual pigs): 0.88 and 0.74 and 0.47 and 0.87 and 1.05
LTB4 (time 6, individual pigs): <LOD and 0.28 and 0.38 and 0.18 and 0.43
PGD2 (time 6, individual pigs): <LOD and 0.01 and 0.00656
PGE2 (time 6, individual pigs): 0.095 and 0.06 and 0.20 and <LOD and 0.12
PGF2a (time 6, individual pigs): 1.61 and 0.65 and 4.40 and 0.44 and 2.56
Resolvin D1 (time 6, individual pigs): <LOD
Resolvin D2 (time 6, individual pigs): <LOD
TXB2 (time 6, individual pigs): 2.92 and 3.83 and 2.22 and 1.21 and 1.79
9,10,13-TriHOME (time 6, individual pigs): 2.86 and 3.12 and 7.92 and 7.73 and 5.56
9,12,13-TriHOME (time 6, individual pigs): <LOD and 0.24
14,15-DiHETE (time 6, individual pigs): 0.3645 and 0.4177 and 0.09663 and 0.04163 and 0.2578
